In patent US11433055B2, “Chromane monobactam compounds for the treatment of bacterial infections” (priority 2017, dated 2022):
Counter-ions that a name gives are not always drawn.

Assays:
Format in all cases: cell-based
Conditions in all cases: lowest concentration inhibiting 95% of bacterial growth; in the presence of β lactamase inhibitor (BLi, Relebactam); 22 hours, 35±2° C., OD600
[1] = test system: Acinetobacter baumannii expressing TEM-1, AmpC, and Oxa-24/40 (CL6188)
Method: (§1) Antibiotic Activity: Determination of Growth Inhibitory Concentration
(§2) The concentrations of compounds required to inhibit the growth of various strains of bacteria were determined in an assay that assessed bacterial growth by measuring optical density at 600 nm (OD600). The bacterial strains tested included the clinical strains Escherichia coli expressing NDM-1 (CLB30016), Klebsiella pneumoniae expressing KPC-1 (CL6569), Acinetobacter baumannii expressing TEM-1, AmpC, and Oxa-24/40 (CL6188) and Pseudomonas aeruginosa expressing AmpC (CL5701). All compounds were tested in the presence of a β lactamase inhibitor (BLi, Relebactam) in 384-well microplates. The clinical strains were stored as frozen single use stocks, thawed and diluted into 1.1× cation-adjusted Mueller-Hinton II broth to achieve approximately 2×10^5 CFU/mL. Test compounds were dissolved in DMSO and diluted 1:50 in the assay, resulting in a final concentration range of 100 μM to 0.098 μM. On the day of the assay, 1 μL of test compound was added to the plate followed by 4 μL of 50 μg/mL BLi in MOPS buffer and 45 μL of diluted bacteria. Plates were centrifuged at 1000 rpm for 30 seconds, shaken at approximately 800 rpm for 1 minute, and incubated at 35±2° C. for 22 hours. The concentration of BLi used in the assay was […]. At the end of the incubation, absorbance at 600 nm was determined using a spectrophotometer. Inhibition was quantitated by identifying the lowest concentration of test compound that was required to inhibit 95% of the growth of the bacteria. The results for Examples 1-39 are reported in Table I, expressed as the concentration of compound that inhibited 95% of bacterial growth (Minimum Inhibitory Threshold Concentration; MITC95).

[2] = test system: Escherichia coli expressing NDM-1 (CLB30016)
Method: as §1, §2

[3] = test system: Klebsiella pneumoniae expressing KPC-1 (CL6569)
Method: as §1, §2

[4] = test system: Pseudomonas aeruginosa expressing AmpC (CL5701)
Method: as §1, §2

Compound: CC1(C)[C@H](NC(=O)/C(=N\O[C@](C)(C(=O)O)C2CCc3cc(-c4cn(C[C@@H](O)CN)[n+](CCCN)c4)ccc3O2)c2csc(N)n2)C(=O)N1OS(=O)(=O)[O-] (mixture of isomers) [Example 5, (3 S)-3-((Z)-2-(((1 S)-1-(6-(1-((S)-3-amino-2-hydroxypropyl)-2-(3-aminopropyl)-1H-pyrazol-2-ium-4-yl)chroman-2-yl)-1-carboxyethoxy)imino)-2-(2-aminothiazol-4-yl)acetamido)-2,2-dimethyl-4-oxoazetidin-1-yl Sulfate]
- AB_CL6188 MITC95 [1]: 25 µM
- EC_CLB30016 MITC95 [2]: 100 µM
- KP_CL6569 MITC95 [3]: 6.25 µM
- PA_CL5701 MITC95 [4]: 50 µM

Compound: CC1(C)[C@H](NC(=O)/C(=N\O[C@](C)(C(=O)O)[C@H]2CCc3cc(C4CNC(NCCN)=N4)ccc3O2)c2csc(N)n2)C(=O)N1OS(=O)(=O)O (single isomer, unassigned) [Example 25]
- AB_CL6188 MITC95 [1]: 50 µM
- EC_CLB30016 MITC95 [2]: 6.25 µM
- KP_CL6569 MITC95 [3]: 0.3906 µM
- PA_CL5701 MITC95 [4]: 3.125 µM

Compound: CC1(C)[C@H](NC(=O)/C(=N\O[C@](C)(C(=O)O)[C@H]2CCc3cc(C4CNC(NCCN)=N4)ccc3O2)c2csc(N)n2)C(=O)N1OS(=O)(=O)O (single isomer, unassigned) [Example 26]
- AB_CL6188 MITC95 [1]: 12.5 µM
- EC_CLB30016 MITC95 [2]: 100 µM
- KP_CL6569 MITC95 [3]: 1.563 µM
- PA_CL5701 MITC95 [4]: 50 µM

Compound: C[n+]1cc(-c2ccc3c(c2)OCC(CO/N=C(\C(=O)N[C@@H]2C(=O)N(OS(=O)(=O)[O-])C2(C)C)c2csc(N)n2)C3)ccc1NCCN.O=C(O)C(F)(F)F (single isomer, unassigned) [Example 37A]
- AB_CL6188 MITC95 [1]: 12.5 µM
- EC_CLB30016 MITC95 [2]: 12.5 µM
- KP_CL6569 MITC95 [3]: 0.78 µM
- PA_CL5701 MITC95 [4]: 3.13 µM

Compound: C[n+]1cc(-c2ccc3c(c2)OCC(CO/N=C(\C(=O)N[C@@H]2C(=O)N(OS(=O)(=O)[O-])C2(C)C)c2csc(N)n2)C3)ccc1NCCN.O=C(O)C(F)(F)F (single isomer, unassigned) [Example 37B]
- AB_CL6188 MITC95 [1]: 50 µM
- EC_CLB30016 MITC95 [2]: 100 µM
- KP_CL6569 MITC95 [3]: 6.25 µM
- PA_CL5701 MITC95 [4]: 25 µM

Compound: CC1(C)[C@H](NC(=O)/C(=N\O[C@](C)(C(=O)O)[C@H]2CCc3cc(-c4cn(C[C@@H](O)CN)[n+](CC5CNC5)c4)ccc3O2)c2csc(N)n2)C(=O)N1OS(=O)(=O)[O-] [Example 4, (S)-3-((Z)-2-(((S)-1-((R)-6-(1-((S)-3-Amino-2-hydroxypropyl)-2-(azetidin-3-ylmethyl)-1H-pyrazol-2-ium-4-yl)chroman-2-yl)-1-carboxyethoxy)imino)-2-(2-aminothiazol-4-yl)acetamido)-2,2-dimethyl-4-oxoazetidin-1-yl Sulfate]
- AB_CL6188 MITC95 [1]: 6.25 µM
- EC_CLB30016 MITC95 [2]: 12.5 µM
- KP_CL6569 MITC95 [3]: 1.281 µM
- PA_CL5701 MITC95 [4]: 25 µM

Compound: C[n+]1cc(-c2ccc3c(c2)CC[C@H]([C@](C)(O/N=C(\C(=O)N[C@@H]2C(=O)N(OS(=O)(=O)[O-])C2(C)C)c2csc(N)n2)C(=O)O)O3)cn1CC1(N)CNC1 [Example 6, (S)-3-((Z)-2-(((S)-1-((R)-6-(1-((3-Aminoazetidin-3-yl)methyl)-2-methyl-1H-pyrazol-2-ium-4-yl)chroman-2-yl)-1-carboxyethoxy)imino)-2-(2-aminothiazol-4-yl)acetamido)-2,2-dimethyl-4-oxoazetidin-1-yl Sulfate]
- AB_CL6188 MITC95 [1]: 100 µM
- EC_CLB30016 MITC95 [2]: 100 µM
- KP_CL6569 MITC95 [3]: 12.5 µM
- PA_CL5701 MITC95 [4]: 100 µM

Compound: C[n+]1cc(-c2ccc3c(c2)CC[C@H]([C@](C)(O/N=C(\C(=O)N[C@@H]2C(=O)N(OS(=O)(=O)[O-])C2(C)C)c2csc(N)n2)C(=O)O)O3)cn1C[C@H](O)CN [Example 7, (S)-3-((Z)-2-(((S)-1-((R)-6-(1-((R)-3-amino-2-hydroxypropyl)-2-methyl-1H-pyrazol-2-ium-4-yl)chroman-2-yl)-1-carboxyethoxy)imino)-2-(2-aminothiazol-4-yl)acetamido)-2,2-dimethyl-4-oxoazetidin-1-yl sulfate]
- AB_CL6188 MITC95 [1]: 25 µM
- EC_CLB30016 MITC95 [2]: 25 µM
- KP_CL6569 MITC95 [3]: 1.563 µM
- PA_CL5701 MITC95 [4]: 12.5 µM

Compound: C[n+]1cc(-c2ccc3c(c2)CC[C@H]([C@](C)(O/N=C(\C(=O)N[C@@H]2C(=O)N(OS(=O)(=O)[O-])C2(C)C)c2csc(N)n2)C(=O)O)O3)cn1C[C@@H](O)CN [Example 8, (S)-3-((Z)-2-(((S)-1-((R)-6-(1-((S)-3-amino-2-hydroxypropyl)-2-methyl-1H-pyrazol-2-ium-4-yl)chroman-2-yl)-1-carboxyethoxy)imino)-2-(2-aminothiazol-4-yl)acetamido)-2,2-dimethyl-4-oxoazetidin-1-yl sulfate]
- AB_CL6188 MITC95 [1]: 100 µM
- EC_CLB30016 MITC95 [2]: 100 µM
- KP_CL6569 MITC95 [3]: 3.125 µM
- PA_CL5701 MITC95 [4]: 25 µM

Compound: CC1(C)[C@H](NC(=O)/C(=N\O[C@](C)(C(=O)O)[C@H]2CCc3cc(-c4cn(CCCN)c(=N)n4C[C@H](O)CO)ccc3O2)c2csc(N)n2)C(=O)N1OS(=O)(=O)O [Example 9, (S)-3-((Z)-2-(((S)-1-((R)-6-(1-(3-aminopropyl)-3-((S)-2,3-dihydroxypropyl)-2-imino-2,3-dihydro-1H-imidazol-4-yl)chroman-2-yl)-1-carboxyethoxy)imino)-2-(2-aminothiazol-4-yl)acetamido)-2,2-dimethyl-4-oxoazetidin-1-yl sulfate]
- AB_CL6188 MITC95 [1]: 12.5 µM
- EC_CLB30016 MITC95 [2]: 12.5 µM
- KP_CL6569 MITC95 [3]: 0.3906 µM
- PA_CL5701 MITC95 [4]: 6.25 µM

Compound: C[n+]1cc(-c2ccc3c(c2)CC[C@@H](CO/N=C(\C(=O)N[C@@H]2C(=O)N(OS(=O)(=O)[O-])C2(C)C)c2csc(N)n2)O3)cn1CCCN [Example 10, (S)-3-((Z)-2-((((S)-6-(1-(3-aminopropyl)-2-methyl-1H-pyrazol-2-ium-4-yl)chroman-2-yl)methoxy)imino)-2-(2-aminothiazol-4-yl)acetamido)-2,2-dimethyl-4-oxoazetidin-1-yl sulfate]
- AB_CL6188 MITC95 [1]: 12.5 µM
- EC_CLB30016 MITC95 [2]: 6.25 µM
- KP_CL6569 MITC95 [3]: 0.3906 µM
- PA_CL5701 MITC95 [4]: 6.25 µM

Compound: C[n+]1cc(-c2ccc3c(c2)CC[C@H](CO/N=C(\C(=O)N[C@@H]2C(=O)N(OS(=O)(=O)[O-])C2(C)C)c2csc(N)n2)O3)cn1CCCN [Example 11, (S)-3-((Z)-2-((((R)-6-(1-(3-aminopropyl)-2-methyl-1H-pyrazol-2-ium-4-yl)chroman-2-yl)methoxy)imino)-2-(2-aminothiazol-4-yl)acetamido)-2,2-dimethyl-4-oxoazetidin-1-yl sulfate]
- AB_CL6188 MITC95 [1]: 3.125 µM
- EC_CLB30016 MITC95 [2]: 6.25 µM
- KP_CL6569 MITC95 [3]: 0.7813 µM
- PA_CL5701 MITC95 [4]: 3.125 µM

Compound: CC1(C)[C@H](NC(=O)/C(=N\OCC2CCc3cc(C(=N)NCCN)ccc3O2)c2csc(N)n2)C(=O)N1OS(=O)(=O)O (stereo partly drawn) [Example 13, (3S)-3-((Z)-2-(((6-(N-(2-aminoethyl)carbamimidoyl)chroman-2-yl)methoxy)imino)-2-(2-aminothiazol-4-yl)acetamido)-2,2-dimethyl-4-oxoazetidin-1-yl hydrogen sulfate]
- AB_CL6188 MITC95 [1]: 25 µM
- EC_CLB30016 MITC95 [2]: 12.5 µM
- KP_CL6569 MITC95 [3]: 0.7813 µM
- PA_CL5701 MITC95 [4]: 12.5 µM

Compound: CC1(C)[C@H](NC(=O)/C(=N\O[C@](C)(C(=O)O)[C@H]2CCc3cc(-c4ccc(NCCN)[n+](CC5CNC5)c4)ccc3O2)c2csc(N)n2)C(=O)N1OS(=O)(=O)[O-].O=CO [Example 14, (S)-3-((Z)-2-(((S)-1-((R)-6-(6-((2-aminoethyl)amino)-1-(azetidin-1-ium-3-ylmethyl)pyridin-1-ium-3-yl)chroman-2-yl)-1-carboxyethoxy)imino)-2-(2-aminothiazol-4-yl)acetamido)-2,2-dimethyl-4-oxoazetidin-1-yl Sulfate Formate]
- AB_CL6188 MITC95 [1]: 50 µM
- EC_CLB30016 MITC95 [2]: 12.5 µM
- KP_CL6569 MITC95 [3]: 0.7813 µM
- PA_CL5701 MITC95 [4]: 12.5 µM

Compound: C[n+]1cc(-c2ccc3c(c2)CC[C@H]([C@](C)(O/N=C(\C(=O)N[C@@H]2C(=O)N(OS(=O)(=O)[O-])C2(C)C)c2csc(N)n2)C(=O)O)O3)cnc1N(CCN)CC1CNC1.O=CO [Example 15, (S)-3-((Z)-2-(((S)-1-((R)-6-(2-((2-aminoethyl)(azetidin-1-ium-3-ylmethyl)amino)-1-methylpyrimidin-1-ium-5-yl)chroman-2-yl)-1-carboxyethoxy)imino)-2-(2-aminothiazol-4-yl)acetamido)-2,2-dimethyl-4-oxoazetidin-1-yl sulfate formate]
- AB_CL6188 MITC95 [1]: 3.125 µM
- EC_CLB30016 MITC95 [2]: 6.25 µM
- KP_CL6569 MITC95 [3]: 0.3906 µM
- PA_CL5701 MITC95 [4]: 6.25 µM
